{"source": "patent US11090318B2", "about": "“Wound healing promoter” (NAHLS CORPORATION CO., LTD., priority 2017, dated 2021)", "key": {"[1]": {"tested_on": "domestic dog affected by conjunctivitis", "test": "Eye drops in a domestic dog affected by conjunctivitis", "format": "in vivo", "conditions": "antibiotic alone by instillation twice a day for one year or longer, before preparation (6)", "description": "The pharmaceutical preparation (6) was administered as drops to the eyes of a domestic dog affected by conjunctivitis, and 30 minutes later an antibiotic (cefmenoxime hydrochloride 0.5%) was administered as drops to the eyes. This process was repeated twice a day for 5 days.\nThe domestic dog had suffered from signs of dry eye syndrome and often undergone conjunctivitis resulting from bacterial infection."}, "[2]": {"tested_on": "Mouse fetus-derived fibroblasts", "test": "Gene expression in fibroblasts with or without TGF-β (real-time PCR)", "format": "cell-based", "conditions": "for PDLIM2 gene expression: 10 μg/mL, FIG. 6", "description": "Mouse fetus-derived fibroblasts were spread or inoculated in a 10% FCS-containing Dulbecco's modified Eagle medium (DMEM) and cultured for 24 hours. The 10% FCS-containing DMEM was then removed, and a fresh DMEM devoid of FCS was added, followed by cultivation for further 24 hours. Next, the DMEM containing the cells was combined with Nahlsgen or D-AP6 obtained in Preparation Example 1 to a concentration of 10 μg/mL, cultured for 5 hours, further combined with TGF-β, and cultured for further 5 hours. After the cultivation, RNAs or proteins were recovered, and the quantities of MMP3, MMP9, MMP13, FGF, TGF-β, amphiregulin, PDLIM2, and hyaluronic acid (HSA2) were determined using the real-time PCR technique."}, "[3]": {"conditions": "10 μg/mL together with TGF-β, compared with TGF-β alone"}, "[4]": {"conditions": "substance added alone, Nahlsgen or D-AP6 10 μg/mL"}}, "note": "Structures can show the parent of a compound that is named as a salt."}
{"molecule": "CO/N=C(\\C(=O)N[C@@H]1C(=O)N2C(C(=O)O)=C(CSc3nnnn3C)CS[C@H]12)c1csc(N)n1", "note": "[antibiotic, cefmenoxime hydrochloride]", "values": [{"measurement": "curative effects", "setting": "[1]", "result": "failed to enjoy curative effects"}]}
{"molecule": "N[C@H](CCCCP(=O)(O)O)C(=O)O", "note": "[D-AP6, D-2-amino-6-phosphonohexanoic acid monohydrate]", "values": [{"measurement": "expression of FGF", "setting": "[2]; [3]", "result": "significantly increased the expression levels as compared with the addition of TGF-β alone"}, {"measurement": "expression of MMP3", "setting": "[2]; [3]", "result": "significantly increased the expression levels as compared with the addition of TGF-β alone"}, {"measurement": "expression of MMP9", "setting": "[2]; [3]", "result": "significantly increased the expression levels as compared with the addition of TGF-β alone"}, {"measurement": "expression of MMP13", "setting": "[2]; [3]", "result": "significantly increased the expression levels as compared with the addition of TGF-β alone"}, {"measurement": "expression of TGF-β", "setting": "[2]; [3]", "result": "significantly increased the expression levels as compared with the addition of TGF-β alone"}, {"measurement": "expression of amphiregulin", "setting": "[2]; [3]", "result": "significantly increased the expression levels as compared with the addition of TGF-β alone"}, {"measurement": "expression of hyaluronic acid", "setting": "[2]; [3]", "result": "significantly increased the expression levels as compared with the addition of TGF-β alone"}, {"measurement": "PDLIM2 gene expression", "setting": "[2]", "result": "reduced PDLIM2 gene expression"}, {"measurement": "expression of FGF", "setting": "[2]; [4]", "result": "approximately no change in the expression levels"}, {"measurement": "expression of MMP3", "setting": "[2]; [4]", "result": "approximately no change in the expression levels"}, {"measurement": "expression of MMP9", "setting": "[2]; [4]", "result": "approximately no change in the expression levels"}, {"measurement": "expression of MMP13", "setting": "[2]; [4]", "result": "approximately no change in the expression levels"}, {"measurement": "expression of TGF-β", "setting": "[2]; [4]", "result": "approximately no change in the expression levels"}, {"measurement": "expression of amphiregulin", "setting": "[2]; [4]", "result": "approximately no change in the expression levels"}, {"measurement": "expression of hyaluronic acid", "setting": "[2]; [4]", "result": "approximately no change in the expression levels"}]}
{"molecule": "TGF-β [reference compound]", "values": [{"measurement": "expression of FGF", "setting": "[2]; [4]", "result": "increased the expression"}, {"measurement": "expression of MMP3", "setting": "[2]; [4]", "result": "increased the expression"}, {"measurement": "expression of MMP9", "setting": "[2]; [4]", "result": "increased the expression"}, {"measurement": "expression of MMP13", "setting": "[2]; [4]", "result": "increased the expression"}, {"measurement": "expression of TGF-β", "setting": "[2]; [4]", "result": "increased the expression"}, {"measurement": "expression of amphiregulin", "setting": "[2]; [4]", "result": "increased the expression"}, {"measurement": "expression of hyaluronic acid", "setting": "[2]; [4]", "result": "increased the expression"}]}
{"molecule": "COP(=O)(CCC(N)C(=O)O)Oc1cccc(CC(=O)O)c1", "note": "(centres unmarked) [Nahlsgen]", "values": [{"measurement": "expression of FGF", "setting": "[2]; [3]", "result": "significantly increased the expression levels as compared with the addition of TGF-β alone"}, {"measurement": "expression of MMP3", "setting": "[2]; [3]", "result": "significantly increased the expression levels as compared with the addition of TGF-β alone"}, {"measurement": "expression of MMP9", "setting": "[2]; [3]", "result": "significantly increased the expression levels as compared with the addition of TGF-β alone"}, {"measurement": "expression of MMP13", "setting": "[2]; [3]", "result": "significantly increased the expression levels as compared with the addition of TGF-β alone"}, {"measurement": "expression of TGF-β", "setting": "[2]; [3]", "result": "significantly increased the expression levels as compared with the addition of TGF-β alone"}, {"measurement": "expression of amphiregulin", "setting": "[2]; [3]", "result": "significantly increased the expression levels as compared with the addition of TGF-β alone"}, {"measurement": "expression of hyaluronic acid", "setting": "[2]; [3]", "result": "significantly increased the expression levels as compared with the addition of TGF-β alone"}, {"measurement": "PDLIM2 gene expression", "setting": "[2]", "result": "reduced PDLIM2 gene expression"}, {"measurement": "expression of FGF", "setting": "[2]; [4]", "result": "approximately no change in the expression levels"}, {"measurement": "expression of MMP3", "setting": "[2]; [4]", "result": "approximately no change in the expression levels"}, {"measurement": "expression of MMP9", "setting": "[2]; [4]", "result": "approximately no change in the expression levels"}, {"measurement": "expression of MMP13", "setting": "[2]; [4]", "result": "approximately no change in the expression levels"}, {"measurement": "expression of TGF-β", "setting": "[2]; [4]", "result": "approximately no change in the expression levels"}, {"measurement": "expression of amphiregulin", "setting": "[2]; [4]", "result": "approximately no change in the expression levels"}, {"measurement": "expression of hyaluronic acid", "setting": "[2]; [4]", "result": "approximately no change in the expression levels"}]}
